Assay in all cases: biochemical
Holding throughout (format): binding

Assay [1] has as its target T1, cellular kinases of SH-SY5Y cells (Homo sapiens, UniProt Q13177).
T1 construct: endogenous in cells; host or cells: SH-SY5Y
Particulars: 2µM; SH-SY5Y cells; Labeling Site Other; KNPQAVLDVLKFYDSNTVK; read-out: KiNativ in-cell binding, % Inhibition, PAK2. An excerpt:
(§1) As KINOMEscan is an in vitro assay, and as different cell types have variable kinase expression profiles we sought to determine the kinase binding profile in our SH-SY5Y TFEB-relocalization cell model. […] Bound kinases were pulled down and analyzed by mass spectrometry to determine the in situ kinase binding profile for each compound.

In assay [2] the target is cellular kinases of SH-SY5Y cells (Homo sapiens, UniProt P54760). The conditions noted are these: 2µM; SH-SY5Y cells; Labeling Site Activation Loop; FLEENSSDPTYTSSLGGKIPIR; read-out: KiNativ in-cell binding, % Inhibition, EphB4.
From the text: as §1

Assay [3] addresses T2, cellular kinases of SH-SY5Y cells (Homo sapiens, UniProt P78356).
T2 construct: endogenous in cells; host or cells: SH-SY5Y
Particulars: 2µM; SH-SY5Y cells; Labeling Site ATP; AKDLPTFKDNDFLNEGQK; read-out: KiNativ in-cell binding, % Inhibition, PIP4K2B.
From the text: as §1

For assay [4], the target named is T3, cellular kinases of SH-SY5Y cells (Homo sapiens, UniProt Q86UX6).
T3 construct: endogenous in cells; host or cells: SH-SY5Y
Particulars: 2µM; SH-SY5Y cells; Labeling Site Lys2; DVKPDNILLDER; read-out: KiNativ in-cell binding, % Inhibition, STK32C/YANK3.
From the text: as §1

In assay [5] the target is cellular kinases of SH-SY5Y cells (Homo sapiens, UniProt P29323). The conditions noted are these: 2µM; SH-SY5Y cells; Labeling Site Activation Loop; FLEDDTSDPTYTSALGGKIPIR; read-out: KiNativ in-cell binding, % Inhibition, EphB2.
From the text: as §1

The target in assay [6] is T4, cellular kinases of SH-SY5Y cells (Homo sapiens, UniProt O14936).
T4 construct: endogenous in cells; host or cells: SH-SY5Y
Particulars: 2µM; SH-SY5Y cells; Labeling Site Lys1; ETGQQFAVKIVDVAK; read-out: KiNativ in-cell binding, % Inhibition, CASK.
From the text: as §1

In assay [7] the target is T5, cellular kinases of SH-SY5Y cells (Homo sapiens, UniProt Q96BR1).
T5 construct: endogenous in cells; host or cells: SH-SY5Y
The conditions noted are these: 2µM; SH-SY5Y cells; Labeling Site Lys1; FYAVKVLQK; read-out: KiNativ in-cell binding, % Inhibition, SGK3.
From the text: as §1

In assay [8] the target is T6, cellular kinases of SH-SY5Y cells (Homo sapiens, UniProt Q8TD19).
T6 construct: endogenous in cells; host or cells: SH-SY5Y
T6 sequence (Q8TD19 1-979): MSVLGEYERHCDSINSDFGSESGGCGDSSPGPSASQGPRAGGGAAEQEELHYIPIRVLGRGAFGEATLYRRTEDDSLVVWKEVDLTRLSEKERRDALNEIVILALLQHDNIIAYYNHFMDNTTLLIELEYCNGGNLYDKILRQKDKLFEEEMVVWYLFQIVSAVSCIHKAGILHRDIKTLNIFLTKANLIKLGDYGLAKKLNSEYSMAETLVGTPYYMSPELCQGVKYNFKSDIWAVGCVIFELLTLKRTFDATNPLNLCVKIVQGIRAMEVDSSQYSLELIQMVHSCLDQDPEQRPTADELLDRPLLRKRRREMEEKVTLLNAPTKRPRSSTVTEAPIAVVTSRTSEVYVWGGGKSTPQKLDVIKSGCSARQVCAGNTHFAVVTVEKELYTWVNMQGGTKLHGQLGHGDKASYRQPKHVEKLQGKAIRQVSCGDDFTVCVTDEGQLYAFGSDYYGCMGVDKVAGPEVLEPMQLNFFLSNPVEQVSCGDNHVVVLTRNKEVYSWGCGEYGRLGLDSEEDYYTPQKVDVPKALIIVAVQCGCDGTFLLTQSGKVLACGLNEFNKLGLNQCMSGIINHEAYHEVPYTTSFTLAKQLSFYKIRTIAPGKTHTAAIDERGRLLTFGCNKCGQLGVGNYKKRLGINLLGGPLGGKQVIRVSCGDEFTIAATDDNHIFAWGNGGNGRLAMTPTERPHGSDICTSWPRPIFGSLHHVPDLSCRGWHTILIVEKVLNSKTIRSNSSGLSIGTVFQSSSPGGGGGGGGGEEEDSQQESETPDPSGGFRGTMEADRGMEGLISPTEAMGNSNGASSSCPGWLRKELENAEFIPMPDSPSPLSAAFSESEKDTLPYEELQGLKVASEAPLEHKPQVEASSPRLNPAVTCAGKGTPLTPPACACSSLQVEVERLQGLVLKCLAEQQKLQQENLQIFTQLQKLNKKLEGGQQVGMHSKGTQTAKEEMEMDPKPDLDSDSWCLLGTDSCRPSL
The conditions noted are these: 2µM, SH-SY5Y cells, read-out: KiNativ in-cell binding, % Inhibition, NEK9.
From the text: as §1

For assay [9], the target named is T7, cellular kinases of SH-SY5Y cells (Homo sapiens, UniProt Q15831).
T7 construct: endogenous in cells; host or cells: SH-SY5Y
The conditions noted are these: 2µM; SH-SY5Y cells; Labeling Site Lys2; DIKPGNLLLTTGGTLK; read-out: KiNativ in-cell binding, % Inhibition, STK11/LKB1.
From the text: as §1

Assay [10] deals with T8, cellular kinases of SH-SY5Y cells (Homo sapiens, UniProt O15021).
T8 construct: endogenous in cells; host or cells: SH-SY5Y
The conditions noted are these: 2µM; SH-SY5Y cells; Labeling Site Lys2; DLKPDNLLVTSMGHIK; read-out: KiNativ in-cell binding, % Inhibition, MAST4.
From the text: as §1

Assay [11] has as its target cellular kinases of SH-SY5Y cells (Homo sapiens, UniProt P00533). Particulars: 2µM, SH-SY5Y cells, read-out: KiNativ in-cell binding, % Inhibition, EGFR, EGFR-L858R.
From the text: as §1

Assay [12] concerns the target T9, cellular kinases of SH-SY5Y cells (Homo sapiens, UniProt Q9UHD2).
T9 construct: endogenous in cells; host or cells: SH-SY5Y
The conditions noted are these: 2µM; SH-SY5Y cells; labeling site Lys1; peptide TGDLFAIKVFNNISFLRPVDVQMR
From the text: as §1

Assay [13] deals with cellular kinases of SH-SY5Y cells (Homo sapiens, UniProt O14757). Particulars: 2µM; SH-SY5Y cells; Labeling Site Lys2; DIKPENLLLDER; read-out: KiNativ in-cell binding, % Inhibition, CHEK1/CHK1.
From the text: as §1

Like-named read-outs stand apart in the source and are kept apart here.

Sequence of cellular kinases of SH-SY5Y cells (Homo sapiens, UniProt P00533) (P00533 25-1210): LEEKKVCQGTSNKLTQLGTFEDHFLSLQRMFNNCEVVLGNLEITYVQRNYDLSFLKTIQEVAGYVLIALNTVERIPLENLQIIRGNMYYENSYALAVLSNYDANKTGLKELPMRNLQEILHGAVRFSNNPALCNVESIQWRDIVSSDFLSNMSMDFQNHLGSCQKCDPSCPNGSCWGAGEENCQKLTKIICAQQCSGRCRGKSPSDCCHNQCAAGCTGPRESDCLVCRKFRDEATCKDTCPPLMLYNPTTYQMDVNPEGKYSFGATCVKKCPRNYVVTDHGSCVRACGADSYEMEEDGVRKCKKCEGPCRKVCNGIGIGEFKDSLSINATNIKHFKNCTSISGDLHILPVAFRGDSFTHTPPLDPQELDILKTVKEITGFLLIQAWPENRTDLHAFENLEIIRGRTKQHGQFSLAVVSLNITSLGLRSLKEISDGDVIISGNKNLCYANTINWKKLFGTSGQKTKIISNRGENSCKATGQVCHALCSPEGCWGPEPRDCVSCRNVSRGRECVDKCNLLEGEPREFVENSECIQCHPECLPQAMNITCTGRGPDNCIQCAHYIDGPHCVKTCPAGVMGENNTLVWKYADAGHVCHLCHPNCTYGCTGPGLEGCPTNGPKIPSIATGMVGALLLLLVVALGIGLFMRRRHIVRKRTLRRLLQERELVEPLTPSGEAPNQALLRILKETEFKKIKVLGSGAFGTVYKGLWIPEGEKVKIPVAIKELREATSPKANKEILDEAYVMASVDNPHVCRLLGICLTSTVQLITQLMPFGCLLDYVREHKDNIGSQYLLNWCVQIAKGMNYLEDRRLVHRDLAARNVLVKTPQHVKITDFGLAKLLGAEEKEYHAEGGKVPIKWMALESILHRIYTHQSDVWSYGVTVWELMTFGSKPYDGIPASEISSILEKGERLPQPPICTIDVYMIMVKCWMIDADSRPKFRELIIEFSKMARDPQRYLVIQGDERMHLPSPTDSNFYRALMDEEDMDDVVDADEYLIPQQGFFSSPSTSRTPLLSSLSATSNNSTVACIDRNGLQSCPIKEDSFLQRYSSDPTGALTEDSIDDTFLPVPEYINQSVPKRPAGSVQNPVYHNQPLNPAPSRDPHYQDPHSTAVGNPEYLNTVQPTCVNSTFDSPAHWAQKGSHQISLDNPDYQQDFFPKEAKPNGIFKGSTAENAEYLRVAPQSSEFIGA
T7 sequence (Q15831 whole entry): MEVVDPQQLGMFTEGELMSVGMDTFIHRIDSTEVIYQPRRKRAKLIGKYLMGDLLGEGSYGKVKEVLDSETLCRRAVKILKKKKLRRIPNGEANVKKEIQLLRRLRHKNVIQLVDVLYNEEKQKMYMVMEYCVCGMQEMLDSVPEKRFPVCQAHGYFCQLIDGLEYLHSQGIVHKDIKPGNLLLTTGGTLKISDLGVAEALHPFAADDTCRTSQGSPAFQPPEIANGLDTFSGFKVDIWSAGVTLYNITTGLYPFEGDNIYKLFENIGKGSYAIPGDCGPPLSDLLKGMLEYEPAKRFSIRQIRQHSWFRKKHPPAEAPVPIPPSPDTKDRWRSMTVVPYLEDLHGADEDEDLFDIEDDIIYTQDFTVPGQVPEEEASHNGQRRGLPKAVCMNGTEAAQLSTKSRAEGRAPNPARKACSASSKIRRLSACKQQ
T5 sequence (Q96BR1 whole entry): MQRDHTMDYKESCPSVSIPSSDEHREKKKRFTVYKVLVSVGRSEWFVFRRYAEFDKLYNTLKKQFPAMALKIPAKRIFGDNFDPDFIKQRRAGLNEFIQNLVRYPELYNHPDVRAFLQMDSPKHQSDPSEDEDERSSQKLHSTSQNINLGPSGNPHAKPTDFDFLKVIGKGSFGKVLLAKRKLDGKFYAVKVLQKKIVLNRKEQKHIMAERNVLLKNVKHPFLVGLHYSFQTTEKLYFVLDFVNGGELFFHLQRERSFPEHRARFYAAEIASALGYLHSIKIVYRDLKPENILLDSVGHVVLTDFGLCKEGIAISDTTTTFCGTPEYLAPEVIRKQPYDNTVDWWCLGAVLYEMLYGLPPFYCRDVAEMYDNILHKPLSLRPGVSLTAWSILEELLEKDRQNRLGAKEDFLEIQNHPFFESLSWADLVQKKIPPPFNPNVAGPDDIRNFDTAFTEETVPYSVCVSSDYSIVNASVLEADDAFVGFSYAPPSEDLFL
Sequence of cellular kinases of SH-SY5Y cells (Homo sapiens, UniProt P54760) (P54760 16-987): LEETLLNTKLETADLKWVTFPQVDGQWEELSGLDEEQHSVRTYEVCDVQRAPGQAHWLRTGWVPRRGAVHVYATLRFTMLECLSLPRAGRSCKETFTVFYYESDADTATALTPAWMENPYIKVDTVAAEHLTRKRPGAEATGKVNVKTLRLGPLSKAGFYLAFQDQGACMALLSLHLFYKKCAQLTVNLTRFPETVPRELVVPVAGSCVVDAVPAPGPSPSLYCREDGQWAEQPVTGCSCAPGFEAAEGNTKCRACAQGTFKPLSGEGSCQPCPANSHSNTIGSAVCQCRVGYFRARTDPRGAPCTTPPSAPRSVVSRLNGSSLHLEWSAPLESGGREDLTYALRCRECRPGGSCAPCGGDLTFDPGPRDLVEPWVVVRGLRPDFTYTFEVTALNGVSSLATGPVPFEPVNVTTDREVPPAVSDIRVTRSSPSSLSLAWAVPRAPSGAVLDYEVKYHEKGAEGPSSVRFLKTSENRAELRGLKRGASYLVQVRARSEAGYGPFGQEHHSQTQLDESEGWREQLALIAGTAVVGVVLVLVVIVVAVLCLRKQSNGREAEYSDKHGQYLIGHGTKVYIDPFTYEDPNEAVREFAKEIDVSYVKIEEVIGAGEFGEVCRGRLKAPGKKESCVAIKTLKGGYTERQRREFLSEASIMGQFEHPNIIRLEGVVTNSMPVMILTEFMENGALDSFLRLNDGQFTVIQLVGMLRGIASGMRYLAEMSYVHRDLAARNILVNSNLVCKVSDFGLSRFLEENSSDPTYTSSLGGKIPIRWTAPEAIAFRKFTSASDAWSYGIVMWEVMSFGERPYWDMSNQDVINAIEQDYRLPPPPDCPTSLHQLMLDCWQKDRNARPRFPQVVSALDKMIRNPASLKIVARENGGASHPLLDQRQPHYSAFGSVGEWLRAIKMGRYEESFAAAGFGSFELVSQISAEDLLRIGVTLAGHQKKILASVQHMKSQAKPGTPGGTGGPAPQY
Sequence of cellular kinases of SH-SY5Y cells (Homo sapiens, UniProt O14757) (O14757 whole entry): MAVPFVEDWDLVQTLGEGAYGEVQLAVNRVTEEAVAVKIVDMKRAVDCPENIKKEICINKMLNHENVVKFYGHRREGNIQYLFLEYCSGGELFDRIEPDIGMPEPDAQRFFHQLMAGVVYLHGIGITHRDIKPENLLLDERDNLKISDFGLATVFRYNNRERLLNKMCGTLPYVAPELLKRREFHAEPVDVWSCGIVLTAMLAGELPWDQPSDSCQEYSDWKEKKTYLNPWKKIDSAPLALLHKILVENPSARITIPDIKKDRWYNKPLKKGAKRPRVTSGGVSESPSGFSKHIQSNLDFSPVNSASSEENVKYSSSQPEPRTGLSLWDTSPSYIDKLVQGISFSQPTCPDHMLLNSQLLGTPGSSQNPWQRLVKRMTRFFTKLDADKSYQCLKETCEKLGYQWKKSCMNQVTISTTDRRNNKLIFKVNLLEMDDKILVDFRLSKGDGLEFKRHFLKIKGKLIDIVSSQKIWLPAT
T1 sequence (Q13177 whole entry): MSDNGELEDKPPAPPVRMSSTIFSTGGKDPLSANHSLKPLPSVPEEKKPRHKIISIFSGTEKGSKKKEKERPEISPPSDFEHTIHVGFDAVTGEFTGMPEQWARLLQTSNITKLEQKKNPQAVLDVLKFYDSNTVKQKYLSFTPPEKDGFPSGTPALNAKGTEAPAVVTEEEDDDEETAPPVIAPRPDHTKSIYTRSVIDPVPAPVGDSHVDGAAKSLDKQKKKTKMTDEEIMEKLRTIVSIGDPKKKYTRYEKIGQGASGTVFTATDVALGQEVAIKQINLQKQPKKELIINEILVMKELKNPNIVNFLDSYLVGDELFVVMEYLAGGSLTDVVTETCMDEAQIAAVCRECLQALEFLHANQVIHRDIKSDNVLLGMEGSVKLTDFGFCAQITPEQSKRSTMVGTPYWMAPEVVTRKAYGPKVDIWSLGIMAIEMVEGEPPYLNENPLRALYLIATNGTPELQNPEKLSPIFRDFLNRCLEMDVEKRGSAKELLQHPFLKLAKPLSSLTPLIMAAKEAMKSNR
T3 sequence (Q86UX6 whole entry): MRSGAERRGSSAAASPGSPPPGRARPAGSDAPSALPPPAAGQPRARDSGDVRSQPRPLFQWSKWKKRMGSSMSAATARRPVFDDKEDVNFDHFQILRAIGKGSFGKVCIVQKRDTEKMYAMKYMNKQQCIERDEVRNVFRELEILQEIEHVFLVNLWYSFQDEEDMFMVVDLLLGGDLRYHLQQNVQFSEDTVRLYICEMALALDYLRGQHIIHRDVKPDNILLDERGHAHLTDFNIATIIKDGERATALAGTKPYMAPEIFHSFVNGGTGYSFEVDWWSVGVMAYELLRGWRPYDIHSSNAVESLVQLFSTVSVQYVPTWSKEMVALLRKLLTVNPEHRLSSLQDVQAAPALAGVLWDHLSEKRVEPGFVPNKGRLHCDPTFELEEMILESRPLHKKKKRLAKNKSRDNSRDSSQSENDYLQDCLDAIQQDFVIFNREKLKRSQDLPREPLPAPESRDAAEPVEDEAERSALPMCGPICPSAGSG
T2 sequence (P78356 whole entry): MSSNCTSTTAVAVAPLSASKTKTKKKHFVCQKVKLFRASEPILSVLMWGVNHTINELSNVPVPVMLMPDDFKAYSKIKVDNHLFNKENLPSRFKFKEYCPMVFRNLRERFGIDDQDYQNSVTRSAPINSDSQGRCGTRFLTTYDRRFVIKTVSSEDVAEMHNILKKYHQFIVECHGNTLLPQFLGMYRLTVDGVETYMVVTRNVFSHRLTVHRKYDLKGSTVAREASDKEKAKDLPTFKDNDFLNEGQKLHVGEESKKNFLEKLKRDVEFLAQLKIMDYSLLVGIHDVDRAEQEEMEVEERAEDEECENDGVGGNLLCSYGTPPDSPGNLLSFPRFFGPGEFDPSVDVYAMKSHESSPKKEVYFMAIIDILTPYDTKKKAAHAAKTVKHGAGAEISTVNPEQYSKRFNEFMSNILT

In the case of `Cc1cccc(-c2nc(Nc3ccc4ncsc4c3)c3ccccc3n2)n1` [NK140], the inhibition at 2 µM is 42.4% in [1]; -33.5% in assay [2]; 27.3% in assay [3]; -34.7% in [4]; -8.7% in assay [5]; 43% in assay [6]. The inhibition at 2 µM in assay [7] was 1%; in assay [8] (Labeling Site Activation Loop, LGDYGLAKK), 0.758%; in assay [8] (Labeling Site Lys1, RTEDDSLVVWKEVDLTR) it was -12.8%; in [8] (Labeling Site Lys2, DIKTLNIFLTK) it was -8%; in assay [9], 58%; in assay [10] it was 27.2%. Also, the inhibition at 2 µM in assay [11] (Labeling Site Activation Loop, LLGAEEKEYHAEGGKVPIK) was 33.5%; in [11] (Labeling Site Lys1, IPVAIKELR), 14.4%; in [13], 16%. The “KiNativ in-cell binding, TBK1” value in assay [12] was -253.9.

For the origin of these results see paper PMC9851200, “Multiparameter phenotypic screening for endogenous TFEB and TFE3 translocation identifies novel chemical series modulating lysosome function” (Autophagy, 2022).
